Drawing on patent US20260001879A1, “COMPOUNDS AS MYT1 INHIBITORS” (WIGEN BIOMMEDICINE TECHNOLOGY (SHANGHAI) CO., LTD., priority 2022, published 2026), this text covers IC50 for 74 compounds.

recombinant protein MYT1, sequence (Q99640 whole entry): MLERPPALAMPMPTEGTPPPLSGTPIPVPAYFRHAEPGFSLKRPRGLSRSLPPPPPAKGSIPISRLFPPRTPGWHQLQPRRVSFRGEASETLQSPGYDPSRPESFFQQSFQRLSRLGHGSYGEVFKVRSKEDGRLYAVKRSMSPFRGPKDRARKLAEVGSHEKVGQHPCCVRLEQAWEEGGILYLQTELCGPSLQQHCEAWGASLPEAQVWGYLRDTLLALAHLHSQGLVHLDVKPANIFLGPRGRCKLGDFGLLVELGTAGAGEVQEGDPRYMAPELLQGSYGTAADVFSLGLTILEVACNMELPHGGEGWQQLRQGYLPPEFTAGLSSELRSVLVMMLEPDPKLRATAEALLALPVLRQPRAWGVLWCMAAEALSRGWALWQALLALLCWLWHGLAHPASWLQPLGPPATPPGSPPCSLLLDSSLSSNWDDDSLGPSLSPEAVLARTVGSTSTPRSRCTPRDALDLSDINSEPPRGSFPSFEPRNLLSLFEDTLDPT

The assay concerns the target recombinant protein MYT1 (Homo sapiens (Human), UniProt Q99640). The experiment in a line: In vitro assay for inhibiting MYT1 kinase activity (ADP-GLO). As to conditions: 10 μM ATP, read-out: Inhibitory activity against recombinant protein MYT1 IC50. In kind it is biochemical. The protocol:
Recombinant MYT1 protein and the compounds were pre-incubated at room temperature for 15 min, and 10 μM ATP was then added to start the reaction. The mixture was incubated at room temperature for another 60 min, and the ADP-GLO reagent from Promega was then added. The resulting mixture was incubated in the dark for 40 min, a detection solution was then added, and the mixture was incubated for another 45-60 min. The chemiluminescence was determined using ENVISION. The inhibition rate and IC50 were calculated compared to the DMSO group.
Background: ADP-Glo turns the ADP formed in a reaction into a luminescent signal.
For orientation: IC50 means the concentration that inhibits the measured activity by half. Turning to `Cc1ccc(O)c(C)c1-n1c(N)c(C(N)=O)c2cc3c(nc21)NCC3` [Compound 80], the IC50 was not above 200 nM. Turning to `Cc1ccc(O)c(C)c1-n1c(N)c(C(N)=O)c2cc3cnncc3cc21` [Compound 59], the IC50 is not above 200 nM. Take `Cc1ccc(O)c(C)c1-n1c(N)c(C(N)=O)c2cc3ccsc3nc21` [Compound 74]: the IC50 is not above 200 nM.

Turning to `Cc1ccc(O)c(C)c1-n1c(N)c(C(N)=O)c2cc3ocnc3nc21` [Compound 68], the IC50 was not above 200 nM. For `Cc1cc2c(C(N)=O)c(N)n(-c3c(C)cc(F)c(O)c3Cl)c2nc1C` [Compound 8], the IC50 was not above 200 nM. As to `Cc1ccc(O)c(C)c1-n1c(N)c(C(N)=O)c2cc3sccc3nc21` [Compound 75], the IC50 is not above 200 nM. Regarding `Cc1c(O)cc(F)c(C)c1-n1c(N)c(C(N)=O)c2cc3c(nc21)C=CC3` [Compound 214], the IC50 was not above 200 nM. Turning to `Cc1ccc(O)c(C)c1-n1c(N)c(C(N)=O)c2cc3c(nc21)CC=C3` [Compound 106], the IC50 was not above 200 nM.

Consider `Cc1cc2c(cc1C#N)c(C(N)=O)c(N)n2-c1c(C)cc(F)c(O)c1C` [Compound 163], for which the IC50 was not above 200 nM. Regarding `Cc1ccc(O)c(C)c1-n1c(N)c(C(N)=O)c2cc3c(nc21)OCO3` [Compound 38], the IC50 is not above 200 nM. On to `Cc1cc2c(C(N)=O)c(N)n(-c3c(C)c(O)cc(I)c3C)c2nc1C` [Compound 217], for which the IC50 was not above 200 nM. For the compound `Cc1ccc(O)c(C)c1-n1c(N)c(C(N)=O)c2cc3cnncc3nc21` [Compound 56], the IC50 is not above 200 nM. Under `Cc1ccc(O)c(C)c1-n1c(N)c(C(N)=O)c2cc3c(nc21)CC=CC3` [Compound 113] stands not above 200 nM; under `Cc1ccc(O)c(C)c1-n1c(N)c(C(N)=O)c2cc3ncsc3nc21` [Compound 69], not above 200 nM. As for `Cc1c(O)cc(F)c(C)c1-n1c(N)c(C(N)=O)c2cc3c(nc21)CCCC3` [Compound 202], the figure is not above 200 nM. In the case of `Cc1ccc(O)c(C)c1-n1c(N)c(C(N)=O)c2cnc(C#N)cc21` [Compound 172], the IC50 is not above 200 nM.

Regarding `Cc1ccc(O)c(C)c1-n1c(N)c(C(N)=O)c2cc3cocc3nc21` [Compound 63], the IC50 was not above 200 nM. As for `Cc1ccc(O)c(C)c1-n1c(N)c(C(N)=O)c2cc3c(nc21)OCCC3` [Compound 35], the IC50 was not above 200 nM.

Consider `Cc1ccc(O)c(C)c1-n1c(N)c(C(N)=O)c2cc3c(nc21)CCO3` [Compound 18], for which the IC50 is not above 200 nM. Under `Cc1nc2c(cc1C#N)c(C(N)=O)c(N)n2-c1c(C(F)(F)F)ccc(O)c1C` [Compound 184] stands not above 200 nM. Consider `Cc1cc2c(C(N)=O)c(N)n(-c3c(C)cc(F)c(O)c3C)c2nc1C#N` [Compound 146], for which the IC50 was not above 200 nM. As for `Cc1ccc(O)c(C)c1-n1c(N)c(C(N)=O)c2cc3c(nc21)CNC3` [Compound 84], the figure is not above 200 nM. Regarding `Cc1ccc(O)c(C)c1-n1c(N)c(C(N)=O)c2cc3c(nc21)CN(C)C3` [Compound 93], the IC50 was not above 200 nM. Turning to `Cc1ccc(O)c(C)c1-n1c(N)c(C(N)=O)c2cc3ccn(C)c3nc21` [Compound 71], the concentration for half-maximal inhibition (IC50) was not above 200 nM. Under `Cc1ccc(O)c(C)c1-n1c(N)c(C(N)=O)c2cc3nc[nH]c3nc21` [Compound 64] stands not above 200 nM; under `Cc1c(O)cc(F)c(C)c1-n1c(N)c(C(N)=O)c2cc3c(nc21)CCC3` [Compound 199], not above 200 nM; under `Cc1cc2c(C(N)=O)c(N)n(-c3c(C)c(F)cc(O)c3Cl)c2nc1C` [Compound 25], not above 200 nM.

For `Cc1ccc(O)c(C)c1-n1c(N)c(C(N)=O)c2cc3cscc3nc21` [Compound 76], the IC50 was not above 200 nM.

With `Cc1cc2c(C(N)=O)c(N)n(-c3c(C)c(O)cc4occc34)c2nc1C` [Compound 129], the IC50 is not above 200 nM. Under `Cc1ccc(O)c(C)c1-n1c(N)c(C(N)=O)c2cc3c(nc21)C=CCC3` [Compound 114] stands not above 200 nM; under `Cc1cc2c(C(N)=O)c(N)n(-c3c(C)cc(F)c(O)c3C)c2nc1C` (single isomer, unassigned) [Compound 5], not above 200 nM.

Take `Cc1cc2c(C(N)=O)c(N)n(-c3c(C)ccc(O)c3C(F)(F)F)c2nc1C#N` [Compound 187]: the IC50 is not above 200 nM. Turning to `Cc1cc2c(C(N)=O)c(N)n(-c3c(C)ccc(O)c3C)c2c(C#N)c1C` [Compound 173], the IC50 is not above 200 nM. With `Cc1cc2c(C(N)=O)c(N)n(-c3c(C)c(C)cc(O)c3C)c2nc1C` [Compound 205], the IC50 was not above 200 nM. For the compound `Cc1cc2c(C(N)=O)c(N)n(-c3c(Cl)cc(F)c(O)c3C)c2nc1C` [Compound 4], the IC50 was not above 200 nM.

As for `Cc1cc2c(C(N)=O)c(N)n(-c3c(C)cc4c(c3C)OCC4)c2nc1C` [Compound 152], the 50% inhibitory concentration (IC50) is not above 200 nM. As for `Cc1ccc(O)c(C)c1-n1c(N)c(C(N)=O)c2cc(C#N)c(C)nc21` [Compound 9], the figure is not above 200 nM.

Consider `Cc1cc2c(C(N)=O)c(N)n(-c3c(C(F)(F)F)ccc(O)c3C)c2nc1C#N` [Compound 186], for which the IC50 is not above 200 nM. Under `Cc1cc2c(cc1C#N)c(C(N)=O)c(N)n2-c1c(C)ccc(O)c1C` [Compound 154] stands not above 200 nM. Under `Cc1cc2c(C(N)=O)c(N)n(-c3c(C)c(O)cc(Cl)c3C)c2nc1C` [Compound 193] stands not above 200 nM; under `Cc1cc2c(C(N)=O)c(N)n(-c3c(C)c(O)cc4c3CCO4)c2nc1C` [Compound 121], not above 200 nM; under `Cc1cc2c(C(N)=O)c(N)n(-c3c(C)c(O)cc(F)c3C)c2nc1C#N` [Compound 143], not above 200 nM. As for `Cc1ccc(O)c(C)c1-n1c(N)c(C(N)=O)c2cc3ncoc3nc21` [Compound 67], the figure is not above 200 nM; as for `Cc1ccc(O)c(C)c1-n1c(N)c(C(N)=O)c2cc3cccnc3nc21` [Compound 41], not above 200 nM; as for `Cc1ccc(O)c(C)c1-n1c(N)c(C(N)=O)c2cc3c(ccn3C)nc21` [Compound 72], not above 200 nM. For the compound `Cc1ccc(O)c(C)c1-n1c(N)c(C(N)=O)c2cc3c(ncn3C)nc21` [Compound 66], the IC50 was not above 200 nM. Under `Cc1ccc(O)c(C)c1-n1c(N)c(C(N)=O)c2cc3nccnc3cc21` [Compound 60] stands not above 200 nM; under `Cc1cc2c(C(N)=O)c(N)n(-c3c(C)c(O)cc4c3OCC4)c2nc1C` [Compound 118], not above 200 nM. Turning to `Cc1ccc(O)c(C)c1-n1c(N)c(C(N)=O)c2cc3ccncc3nc21` [Compound 44], the IC50 is not above 200 nM.

Consider `Cc1cc2c(C(N)=O)c(N)n(-c3c(C)cnc(O)c3C)c2nc1C` [Compound 177], for which the IC50 was not above 200 nM. As for `Cc1ccc(O)c(C)c1-n1c(N)c(C(N)=O)c2cc3c(nc21)CCCO3` [Compound 26], the figure is not above 200 nM. As for `Cc1cc2c(C(N)=O)c(N)n(-c3c(C)ccc(=O)n3C)c2nc1C` [Compound 178], the figure is not above 200 nM; as for `Cc1ccc(O)c(C)c1-n1c(N)c(C(N)=O)c2cc3occc3nc21` [Compound 62], not above 200 nM. As for `Cc1ccc(O)c(C)c1-n1c(N)c(C(N)=O)c2cc3scnc3nc21` [Compound 70], the IC50 is not above 200 nM.

Consider `Cc1c(O)cc(F)c(C)c1-n1c(N)c(C(N)=O)c2cc3c(nc21)CC=C3` [Compound 211], for which the IC50 is not above 200 nM. With `Cc1cc2c(C(N)=O)c(N)n(-c3c(C)c(O)cc4c3CCC4)c2nc1C` [Compound 115], the IC50 was not above 200 nM. On to `Cc1ccc(O)c(C)c1-n1c(N)c(C(N)=O)c2cc3cnccc3nc21` [Compound 47], for which the IC50 was not above 200 nM. Under `COc1cc(O)c(C)c(-n2c(N)c(C(N)=O)c3cc(C)c(C)nc32)c1C` [Compound 223] stands not above 200 nM.

Take `Cc1cc2c(C(N)=O)c(N)n(-c3c(C)c(O)cc(F)c3Cl)c2nc1C` [Compound 24]: the IC50 was not above 200 nM. For `Cc1cc2c(C(N)=O)c(N)n(-c3c(C)c(O)cc(Br)c3C)c2nc1C` [Compound 196], the IC50 was not above 200 nM. Under `Cc1cc(F)c(O)c(C)c1-n1c(N)c(C(N)=O)c2cc(C#N)c(C)nc21` [Compound 140] stands not above 200 nM; under `Cc1ccc(O)c(C)c1-n1c(N)c(C(N)=O)c2cc3c(nc21)NCCC3` [Compound 103], not above 200 nM; under `Cc1cc2c(C(N)=O)c(N)n(-c3c(C)c(O)cc(C#N)c3C)c2nc1C` [Compound 220], not above 200 nM. As for `Cc1cc(F)c(O)c(C)c1-n1c(N)c(C(N)=O)c2cc3ccccc3nc21` [Compound 180], the figure is not above 200 nM; as for `Cc1ccc(O)c(C)c1-n1c(N)c(C(N)=O)c2cc3c(nc21)CCOC3` [Compound 29], not above 200 nM; as for `Cc1ccc(O)c(C)c1-n1c(N)c(C(N)=O)c2cc3ncn(C)c3nc21` [Compound 65], not above 200 nM.

For `Cc1ccc(O)c(C)c1-n1c(N)c(C(N)=O)c2cc3c(nc21)CCCN3` [Compound 102], the IC50 was not above 200 nM. Regarding `Cc1cc2c(C(N)=O)c(N)n(-c3c(C)c(O)cc4c3COC4)c2nc1C` [Compound 124], the IC50 was not above 200 nM. Turning to `Cc1c(O)cc(F)c(C)c1-n1c(N)c(C(N)=O)c2cc3ccccc3nc21` [Compound 179], the IC50 is not above 200 nM.

Take `Cc1ccc(O)c(C)c1-n1c(N)c(C(N)=O)c2cc3c(nc21)COCC3` [Compound 32]: the IC50 is not above 200 nM. For the compound `Cc1c(O)cc(F)c(C)c1-n1c(N)c(C(N)=O)c2cc3c(nc21)COC3` [Compound 131], the IC50 is not above 200 nM. As for `Cc1cc2c(C(N)=O)c(N)n(-c3c(C)c(O)cc(F)c3C)c2nc1C` (single isomer, unassigned) [Compound 1], the figure is not above 200 nM; as for `Cc1ccc(O)c(C)c1-n1c(N)c(C(N)=O)c2cc3c(nc21)N(C)CCC3` [Compound 105], not above 200 nM. Under `Cc1ccc(O)c(C)c1-n1c(N)c(C(N)=O)c2cc3c(nc21)CCC=C3` [Compound 112] stands not above 200 nM.
